# Test results: patent US7060405B2, “Naphthoquinone derivative and electrophotographic photoreceptor containing the same” (Samsung Electronics Co., Ltd., priority 2003, dated 2006)
# Assay: solubility in an organic solvent
# Format: physicochemical
# Details: compared to a conventional electron-transporting material
# Experimental: In addition, two properties of the naphthoquinone derivative of Formula 2 that was used in Example 1 was measured: solubility in an organic solvent and compatibility with a binder resin.
smiles,measurement,value
COc1ccc(C(=O)C2=C(c3ccccc3)C(=O)c3ccccc3C2=O)cc1 [Formula 2],solubility in an organic solvent,improved
